Results on 1 compound are retold here after PMC10619691, “Effect of cyclic substituents on the anti-cancer activity and DNA interaction of ruthenium(II) bis-phenanthroline dipyridoquinoline” (Frontiers in Molecular Biosciences, 2023).

The structures appear in SMILES notation.

Holding throughout (assay type): cell-based, human
For test [1], the system named is HeLa cells. As to the kind of experiment: cell cycle analysis. The procedure: (§1) The cell cycle of cervical HeLa and prostate DU145 cancer cells was studied after treatment with VNK-572 and cisplatin, respectively (Figure 3). VNK-572 and cisplatin both reduced the G2 population after 72 h compared to control (e.g., 16%–11% in Hela (p = 0.06) and from 17% to 2% in the DU145 cell line (p = 0.003) for VNK-572) (Figure 3A). […] The DU145 cells saw a decrease in both phases following 72 h of treatment—from 68% to 40% and from 11% to 5% for the G1 and S phases, respectively (Figure 3A).

Test [2] relates to DU145 cells. As to the kind of experiment: cell cycle analysis. How it is done: as §1
Test [3] has as its system HeLa cells. As to the kind of experiment: Annexin V apoptosis assay. How it is done:
To further analyze the cytotoxicity mechanisms, annexin V was used to determine whether VNK-572/cisplatin exerts an anti-cancer activity through apoptosis. The Annexin V assay was performed following the established procedure. The steps included treating the cells with the complex for 24, 48, and 72 h in 6-well plates and incubating at 37°C. The cells were then rinsed with PBS, trypsinized, and neutralized using culture media. The cells were then spun in the centrifuge at 2500 RPM for 3 min, and the supernatant was discarded. The cell pellet was then washed first with PBS and then with ×1 binding buffer. The cells were then suspended in approximately 1 mL of binding buffer (1–5 million cells), and approximately 100 ul of this suspension was stained with 5 μL of annexin V-APC dye for 15 min. The cells were then washed with binding buffer and resuspended in 200 μL of binding buffer before being stained with 5 ul of propidium iodide. The cells were then analyzed using a flow cytometer within 4 h.

Take `F[P-](F)(F)(F)(F)F.F[P-](F)(F)(F)(F)F.[Ru+2].c1cnc2c(c1)c1ncc3c(c1c1cccnc12)CCCC3.c1cnc2c(c1)ccc1cccnc12.c1cnc2c(c1)ccc1cccnc12` [VNK-572]: in test [1], the “changes in G1 / S phases” value was “only slight changes”. The sub-G1 population amounted to 12% in test [1] (72 h of treatment, control 5% (VNK-572), 6% (cisplatin)) and 51% in test [2] (DU145, after 72 h, control 1%). In addition, the G2 population is on record as 11% in test [1] (after 72 h, control 16%) and 2% in test [2] (DU145, after 72 h, control 17%). In addition, the S phase population in test [2] (DU145, 72 h of treatment, control 11%) was determined as 5%. The compound further had a G1 phase population in test [2] (DU145, 72 h of treatment, control 68%) of 40%. Also, the “Q2 (propidium iodide and annexin V APC-stained cells), late-stage apoptosis” value in test [3] (72 h of treatment, control 2%) turned out to be 11%. The “Q4 (annexin V APC), early apoptosis” value in test [3] (72 h of treatment, control 14% (VNK-572), 13% (cisplatin)) turned out to be 26%. Further, in test [3] (after 72 h of treatment), the “Q1 (necrosis)” value was under 6%.
